System: panel of cancer cell lines
Experiment: Cell viability (CellTiter-Glo) dose-response across cancer cell line panel;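 also: after 72 h compound incubation with CellTiter-Glo ATP readout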
Type: cell-based, human
Conditions: Homo sapiens
From the text: Next, we explored the effect of CSN5 inhibition on the viability of cancer cells. To obtain a comprehensive picture, we generated dose–response curves with a CSN5 inhibitor across more than 500 cancer cell lines in a previously described standardized setting[47] (Supplementary Data 1).
A standardized CellTiter-Glo Assay (Promega #G7570) based on the quantification of ATP was applied according to the manufacturer's protocol to measure the amount of viable cells in culture. In brief, cells were seeded into 384-well plates at optimal density for each cell line. After 4 h, compounds were added at different concentrations in growth medium and incubated for another 72 h in a humidifying chamber at 37 °C and 5% CO2. […] EC50 values were calculated from the plot of percentage of inhibition versus inhibitor concentration using the nonlinear regression analysis software Origin 7.5SR6 (OriginLab Corp.).

For `NS(=O)(=O)OC[C@@H]1C[C@@H](n2ccc3c(N[C@H]4CCc5ccccc54)ncnc32)C[C@@H]1O` [MLN4924], the EC50 (HEC-251, HEC-251) was 8160 nM, the EC50 (HEC-265) was 20000 nM and the EC50 (HEL) was 190 nM. For the same compound, the EC50 (HEL 92.1.7, HEL 92.1.7) was 94.8 nM, the EC50 (HEY A8, Hey-A8) was 114 nM and the EC50 (HL-60, HL-60) was 361 nM. It also gave an EC50 (HLC-1) of 981 nM, an EC50 (HLE) of 454 nM and an EC50 (HLF) of 739 nM. It also gave an EC50 (HMC-1-8) of 154 nM, an EC50 (HPAC) of 830 nM and an EC50 (HPBALL, HPB-ALL) of 333 nM. The EC50 (HRT-18, HRT-18) was 1860 nM, the EC50 (HSC-2, HSC-2) was 146 nM and the EC50 (HSC-3, HSC-3) was 292 nM. The EC50 (HSC-4, HSC-4) was 268 nM, the EC50 (HT-29, HT-29) was 2230 nM and the EC50 (HT-1080, HT-1080) was 215 nM. It also gave an EC50 (Hep3B) of 2560 nM, an EC50 (Hep 3B2.1-7) of 4280 nM and an EC50 (Hs 294T) of 1860 nM. The EC50 (Hs 695T) was 719 nM, the EC50 (Hs766T, Hs 766T) was 18800 nM and the EC50 (Hs 852.T) was 804 nM. For the same compound, the EC50 (Hs 936.T) was 202 nM, the EC50 (Hs 939.T) was 600 nM and the EC50 (Hs 944.T) was 898 nM. For the same compound, the EC50 (HuH-6, HuH-6) was 4960 nM, the EC50 (HuP-T4, HUP-T4) was 360 nM and the EC50 (Huh-7, HuH-7) was 723 nM. For the same compound, the EC50 (IGR-37, IGR-37) was 613 nM, the EC50 (IGR-39, IGR-39) was 545 nM and the EC50 (IGROV-1, IGROV1) was 399 nM. For the same compound, the EC50 (IPC-298, IPC-298) was 716 nM, the EC50 (IST-MES2) was 421 nM and the EC50 (Ishikawa) was 213 nM. For the same compound, the EC50 (J82, J82) was 1650 nM, the EC50 (JHH7, JHH-7) was 12200 nM and the EC50 (JHH-4, JHH-4) was 594 nM. The EC50 (JHOM-1) was 1300 nM, the EC50 (JHOS-2) was 274 nM and the EC50 (JHUEM-2) was 952 nM. It also gave an EC50 (JHUEM-3) greater than 30000 nM, an EC50 (JIMT-1, JIMT-1) of 8670 nM and an EC50 (JL-1) of 2290 nM. It also gave an EC50 (JU77) of 304 nM, an EC50 (JVM-2, JVM-2) of 83.5 nM and an EC50 (K029AX) of 1740 nM. The EC50 (KARPAS-422, KARPAS-422) was 654 nM, the EC50 (KATO III) was 711 nM and the EC50 (KBM-7, KBM-7) was 106 nM. The EC50 (KCI-MOH1) was 2000 nM, the EC50 (KE-97, KE-97) was 210 nM and the EC50 (KLE) was 897 nM. For the same compound, the EC50 (KM12, KM12) was 1570 nM, the EC50 (KMM-1, KMM-1) was 462 nM and the EC50 (KMRC-1, KMRC-1) was 435 nM. The EC50 (KMRC-20) was 1520 nM, the EC50 (KMS-11, KMS-11) was 426 nM and the EC50 (KNS-42, KNS-42) was 282 nM. For the same compound, the EC50 (KNS-60) was 486 nM, the EC50 (KNS-62, KNS-62) was 398 nM and the EC50 (KP-1N) was 15600 nM. For the same compound, the EC50 (KP-1NL) was 13600 nM, the EC50 (KP-2) was 4050 nM and the EC50 (KP-4, KP4) was 828 nM. The EC50 (KS-1) was 336 nM, the EC50 (KU-19-19, KU-19-19) was 922 nM and the EC50 (KURAMOCHI) was 1250 nM. For the same compound, the EC50 (KYSE-30, KYSE-30) was 356 nM, the EC50 (KYSE-70, KYSE-70) was 1060 nM and the EC50 (KYSE-150, KYSE-150) was 725 nM. For the same compound, the EC50 (KYSE-180, KYSE-180) was 1290 nM, the EC50 (Kasumi-3, Kasumi3) was 292 nM and the EC50 (Kasumi-6) was 286 nM. The EC50 (L3.3) was 120 nM, the EC50 (L-363, L-363) was 139 nM and the EC50 (L-428, L-428) was 3080 nM. For the same compound, the EC50 (LC-1/sq-SF) was 926 nM, the EC50 (LC-1F) was 586 nM and the EC50 (LC-2-ad, LC2/ad) was 540 nM. The EC50 (LCLC-103H) was 573 nM, the EC50 (LIM1899) was 2310 nM and the EC50 (LIM2099) was 440 nM. It also gave an EC50 (LIM2405) of 305 nM, an EC50 (LIM2550) of 53.5 nM and an EC50 (LMSU) of 100 nM. The EC50 (LN-18, LN-18) was 178 nM, the EC50 (LO68) was 3750 nM and the EC50 (LOU-NH91, LOU-NH91) was 296 nM. For the same compound, the EC50 (LOX IMVI) was 262 nM, the EC50 (LP-1, LP-1) was 536 nM and the EC50 (LS180, LS 180) was 175 nM. It also gave an EC50 (LUDLU-1, LUDLU-1) of 2510 nM, an EC50 (Li-7, Li-7) of 827 nM and an EC50 (Lu-65, LU65) of 922 nM. For the same compound, the EC50 (Lu-99, LU99) was 98.5 nM, the EC50 (M-07e) was 1020 nM and the EC50 (MCAS) was 529 nM. For the same compound, the EC50 (MCC13) was 4250 nM, the EC50 (MCC14/2) was 36.1 nM and the EC50 (MCC26) was 652 nM. It also gave an EC50 (MDA-MB-134-VI) of 678 nM, an EC50 (MDA-MB-157, MDA-MB-157) of 8450 nM and an EC50 (MDA-MB-175-VII) of 448 nM. The EC50 (MDA-MB-231, MDA-MB-231) was 422 nM, the EC50 (MDA-MB-415, MDA-MB-415) was greater than 30000 nM and the EC50 (MDA-MB-435S) was 3550 nM. For the same compound, the EC50 (MDA-MB-436, MDA-MB-436) was 1430 nM, the EC50 (MDA-MB-453, MDA-MB-453) was 106 nM and the EC50 (MDA-MB-468, MDA-MB-468) was 396 nM. It also gave an EC50 (MDST8, MDST8) of 311 nM, an EC50 (ME-180, ME180) of 177 nM and an EC50 (MEC1, MEC-1) of 302 nM. It also gave an EC50 (MEL-HO) of 873 nM, an EC50 (MEL-JUSO) of 364 nM and an EC50 (MES-SA) of 932 nM. It also gave an EC50 (MFE-280, MFE-280) of 364 nM, an EC50 (MFE-296, MFE-296) of 109 nM and an EC50 (MFE-319) of 3660 nM. It also gave an EC50 (MFM-223, MFM223) of 105 nM, an EC50 (MG-63, MG-63) of 261 nM and an EC50 (MIA PaCa-2, MIA PaCa-2) of 518 nM. The EC50 (MINO) was 13.1 nM, the EC50 (MKN-1, MKN1) was 1020 nM and the EC50 (MKN-45, MKN-45) was 363 nM. For the same compound, the EC50 (ML-2, ML-2) was 57.1 nM, the EC50 (MM127) was 325 nM and the EC50 (MM138) was 251 nM. For the same compound, the EC50 (MM170) was 334 nM, the EC50 (MM253) was 35.5 nM and the EC50 (MM370) was 273 nM. The EC50 (MM383) was 281 nM, the EC50 (MM386) was 950 nM and the EC50 (MM415) was 675 nM. It also gave an EC50 (MM426) of 754 nM, an EC50 (MM466) of 2560 nM and an EC50 (MM473, MM473) of 589 nM. The EC50 (MM485) was 820 nM, the EC50 (MM537) was 84.6 nM and the EC50 (MM576) was 511 nM. For the same compound, the EC50 (MM603) was 415 nM, the EC50 (MOG-G-CCM) was 2350 nM and the EC50 (MOLM-13, MOLM-13) was 46.3 nM. For the same compound, the EC50 (MOLP-8, MOLP-8) was 132 nM.
